Data: ChEMBL document CHEMBL5291721, “A preclinical secondary pharmacology resource illuminates target-adverse drug reaction associations of marketed drugs” (Nat Commun, 2023)

Columns and labels:
[1] = target: T1, Amine oxidase [flavin-containing] A (Homo sapiens, UniProt P21397); assay type: functional
T1 sequence (P21397 whole entry): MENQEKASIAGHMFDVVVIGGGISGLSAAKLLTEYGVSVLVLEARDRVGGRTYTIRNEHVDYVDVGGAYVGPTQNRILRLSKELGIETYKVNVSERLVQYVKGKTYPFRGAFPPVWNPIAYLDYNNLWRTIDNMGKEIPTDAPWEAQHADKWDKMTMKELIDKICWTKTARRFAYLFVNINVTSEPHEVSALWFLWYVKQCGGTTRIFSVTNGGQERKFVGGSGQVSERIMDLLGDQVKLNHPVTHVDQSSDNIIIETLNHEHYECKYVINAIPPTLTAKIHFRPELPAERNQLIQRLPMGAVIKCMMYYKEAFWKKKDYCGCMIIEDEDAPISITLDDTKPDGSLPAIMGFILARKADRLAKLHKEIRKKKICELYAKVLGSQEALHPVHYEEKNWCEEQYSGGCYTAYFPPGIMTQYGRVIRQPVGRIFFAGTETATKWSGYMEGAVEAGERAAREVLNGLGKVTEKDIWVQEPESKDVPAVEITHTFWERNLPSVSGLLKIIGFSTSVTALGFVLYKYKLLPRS

[2] = target: T2, Muscarinic acetylcholine receptor M1 (Homo sapiens, UniProt P11229); assay type: functional, cell-based
T2 sequence (P11229 whole entry): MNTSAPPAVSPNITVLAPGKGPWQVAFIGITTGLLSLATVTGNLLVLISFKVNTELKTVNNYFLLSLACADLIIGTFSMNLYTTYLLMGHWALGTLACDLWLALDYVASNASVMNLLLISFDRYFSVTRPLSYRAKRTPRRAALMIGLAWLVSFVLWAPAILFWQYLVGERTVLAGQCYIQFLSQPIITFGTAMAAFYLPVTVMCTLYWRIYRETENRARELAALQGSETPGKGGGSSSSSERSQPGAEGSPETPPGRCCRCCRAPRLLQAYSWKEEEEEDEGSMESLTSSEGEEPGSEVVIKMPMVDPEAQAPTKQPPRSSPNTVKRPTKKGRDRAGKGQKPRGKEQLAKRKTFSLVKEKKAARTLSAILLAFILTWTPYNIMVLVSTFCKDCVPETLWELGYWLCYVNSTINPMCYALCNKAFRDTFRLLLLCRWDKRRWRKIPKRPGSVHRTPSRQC

Thromboxane A2 receptor = target: T3, Thromboxane A2 receptor (Homo sapiens, UniProt P21731); assay type: functional, cell-based
T3 sequence (P21731 whole entry): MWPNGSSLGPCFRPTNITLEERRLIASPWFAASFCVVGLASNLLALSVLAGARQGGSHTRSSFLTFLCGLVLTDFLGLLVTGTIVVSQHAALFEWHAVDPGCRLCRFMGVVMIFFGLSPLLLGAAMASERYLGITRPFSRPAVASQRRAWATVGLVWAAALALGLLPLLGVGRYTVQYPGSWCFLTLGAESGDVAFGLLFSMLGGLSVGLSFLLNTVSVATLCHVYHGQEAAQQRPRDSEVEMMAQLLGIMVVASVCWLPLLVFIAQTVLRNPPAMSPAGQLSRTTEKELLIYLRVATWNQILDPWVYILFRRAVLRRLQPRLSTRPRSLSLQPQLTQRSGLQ

Progesterone receptor = target: T4, Progesterone receptor (Homo sapiens, UniProt P06401); assay type: functional
T4 sequence (P06401 whole entry): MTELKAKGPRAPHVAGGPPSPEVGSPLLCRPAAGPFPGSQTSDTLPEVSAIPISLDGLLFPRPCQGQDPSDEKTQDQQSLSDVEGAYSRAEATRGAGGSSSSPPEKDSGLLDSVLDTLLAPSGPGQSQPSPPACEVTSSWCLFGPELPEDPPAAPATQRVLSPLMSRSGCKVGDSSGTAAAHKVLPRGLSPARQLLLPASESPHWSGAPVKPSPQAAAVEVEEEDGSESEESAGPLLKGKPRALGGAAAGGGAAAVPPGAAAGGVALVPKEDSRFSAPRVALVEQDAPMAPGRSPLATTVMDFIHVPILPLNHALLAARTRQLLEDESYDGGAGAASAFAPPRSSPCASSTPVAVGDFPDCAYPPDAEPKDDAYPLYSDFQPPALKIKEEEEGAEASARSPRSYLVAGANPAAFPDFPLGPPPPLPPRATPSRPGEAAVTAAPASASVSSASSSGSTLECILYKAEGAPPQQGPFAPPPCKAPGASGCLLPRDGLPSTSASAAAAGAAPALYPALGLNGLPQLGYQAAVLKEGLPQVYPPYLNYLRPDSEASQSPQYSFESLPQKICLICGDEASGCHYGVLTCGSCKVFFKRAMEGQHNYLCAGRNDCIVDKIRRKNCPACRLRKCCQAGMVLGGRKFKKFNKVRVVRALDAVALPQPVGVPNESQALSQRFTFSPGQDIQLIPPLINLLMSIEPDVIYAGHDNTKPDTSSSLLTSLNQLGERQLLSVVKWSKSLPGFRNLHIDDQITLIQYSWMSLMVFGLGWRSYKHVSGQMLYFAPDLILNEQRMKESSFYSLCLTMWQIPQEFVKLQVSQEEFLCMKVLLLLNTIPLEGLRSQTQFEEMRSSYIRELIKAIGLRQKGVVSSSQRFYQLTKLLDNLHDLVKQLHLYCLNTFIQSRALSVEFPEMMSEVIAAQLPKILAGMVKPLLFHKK

Adenosine receptor A3 = target: T5, Adenosine receptor A3 (Homo sapiens, UniProt P0DMS8)
T5 sequence (P0DMS8 whole entry): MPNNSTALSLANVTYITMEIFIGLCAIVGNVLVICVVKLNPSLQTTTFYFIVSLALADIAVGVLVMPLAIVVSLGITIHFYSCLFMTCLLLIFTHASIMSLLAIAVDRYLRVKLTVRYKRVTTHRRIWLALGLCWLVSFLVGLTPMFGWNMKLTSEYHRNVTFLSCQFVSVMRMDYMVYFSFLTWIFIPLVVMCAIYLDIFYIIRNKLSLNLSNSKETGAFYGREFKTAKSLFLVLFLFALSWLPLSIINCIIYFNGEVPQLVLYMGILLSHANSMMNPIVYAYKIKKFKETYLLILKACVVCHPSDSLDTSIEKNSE
Note: assay procedure not described here.

## CC[C@@H]([C@H](C)O)n1ncn(-c2ccc(N3CCN(c4ccc(OC[C@@H]5CO[C@@](Cn6cncn6)(c6ccc(F)cc6F)C5)cc4)CC3)cc2)c1=O [POSACONAZOLE]
[1]
  AC50: > 30 µM
[2]
  AC50: > 1 µM
Thromboxane A2 receptor
  AC50: > 1 µM
Progesterone receptor
  AC50: > 30 µM

## CCOC(=O)N1CSC[C@H]1C(=O)O [TELMESTEINE]
[1]
  AC50: > 30 µM
[2]
  AC50: > 30 µM
Thromboxane A2 receptor
  AC50: > 30 µM
Adenosine receptor A3
  AC50: > 30 µM

## Cc1ncc(COP(=O)(O)O)c(C=O)c1O [PYRIDOXAL PHOSPHATE ANHYDROUS]
[1]
  AC50: > 30 µM
[2]
  AC50: > 30 µM
Thromboxane A2 receptor
  AC50: > 30 µM
Adenosine receptor A3
  AC50: > 30 µM

## CCC(=O)O[C@]1(C(=O)CCl)[C@@H](C)C[C@H]2[C@@H]3C[C@H](F)C4=CC(=O)C=C[C@]4(C)[C@@]3(F)[C@@H](O)C[C@@]21C [HALOBETASOL PROPIONATE]
[1]
  AC50: > 30 µM
[2]
  AC50: 14.9 µM
Thromboxane A2 receptor
  AC50: > 30 µM
Adenosine receptor A3
  AC50: 19.7 µM

## CC(C)N(CCNC(=O)CN1CCCC1=O)C(C)C
[1]
  AC50: > 30 µM
[2]
  AC50: > 30 µM
Thromboxane A2 receptor
  AC50: > 30 µM
Adenosine receptor A3
  AC50: > 30 µM

## CN(C)CCOC(c1ccccc1)c1ccc(Br)cc1 (stereo not drawn) [BROMODIPHENHYDRAMINE]
[1]
  AC50: > 30 µM
[2]
  AC50: 1.49 µM
Thromboxane A2 receptor
  AC50: 14.8 µM
Adenosine receptor A3
  AC50: > 30 µM

## CC(N)Cc1ccc(O)cc1 (stereo not drawn) [HYDROXYAMPHETAMINE]
[1]
  AC50: > 30 µM
[2]
  AC50: > 30 µM
Thromboxane A2 receptor
  AC50: > 30 µM
Adenosine receptor A3
  AC50: > 30 µM

## NCC(CC(=O)O)c1ccccc1 (stereo not drawn) [PHENIBUT]
[1]
  AC50: > 30 µM
[2]
  AC50: > 30 µM
Thromboxane A2 receptor
  AC50: > 30 µM
Adenosine receptor A3
  AC50: > 30 µM

## CCC(=O)O[C@]1(C(=O)SCF)[C@H](C)C[C@H]2[C@@H]3C[C@H](F)C4=CC(=O)C=C[C@]4(C)[C@@]3(F)[C@@H](O)C[C@@]21C [FLUTICASONE PROPIONATE]
[1]
  AC50: > 30 µM
[2]
  AC50: > 30 µM
Thromboxane A2 receptor
  AC50: > 30 µM
Adenosine receptor A3
  AC50: 23.2 µM

## CC1=CCC(C(C)(C)O)CC1O (stereo not drawn) [SOBREROL]
[1]
  AC50: > 30 µM
[2]
  AC50: > 30 µM
Thromboxane A2 receptor
  AC50: > 30 µM
Adenosine receptor A3
  AC50: > 30 µM

## CCCc1nc(C(C)(C)O)c(C(=O)O)n1Cc1ccc(-c2ccccc2-c2nnn[nH]2)cc1 [OLMESARTAN]
[1]
  AC50: > 30 µM
[2]
  AC50: > 30 µM
Thromboxane A2 receptor
  AC50: > 30 µM
Adenosine receptor A3
  AC50: > 30 µM

## CCN(CCCc1ccccc1)CCCc1ccccc1 [ALVERINE]
[1]
  AC50: > 30 µM
[2]
  AC50: 0.198 µM
Thromboxane A2 receptor
  AC50: > 30 µM
Adenosine receptor A3
  AC50: > 30 µM

## Cc1cc(N)c2ccccc2[n+]1CCCCCCCCCC[n+]1c(C)cc(N)c2ccccc21
[1]
  AC50: 16.8 µM
[2]
  AC50: 0.611 µM
Thromboxane A2 receptor
  AC50: > 30 µM
Adenosine receptor A3
  AC50: 8.73 µM

## C=CCSCC1Nc2cc(Cl)c(S(N)(=O)=O)cc2S(=O)(=O)N1 (stereo not drawn) [ALTHIAZIDE]
[1]
  AC50: > 30 µM
[2]
  AC50: > 30 µM
Thromboxane A2 receptor
  AC50: > 30 µM
Adenosine receptor A3
  AC50: > 30 µM

## COc1cc2c(cc1OC)CC(=O)N(CCCN(C)C[C@H]1Cc3cc(OC)c(OC)cc31)CC2 [IVABRADINE]
[1]
  AC50: > 30 µM
[2]
  AC50: > 30 µM
Thromboxane A2 receptor
  AC50: > 30 µM
Adenosine receptor A3
  AC50: > 30 µM

## C[C@H](Cc1cc2c(c(C(N)=O)c1)N(CCCO)CC2)NCCOc1ccccc1OCC(F)(F)F [SILODOSIN]
[1]
  AC50: > 30 µM
[2]
  AC50: > 30 µM
Thromboxane A2 receptor
  AC50: > 30 µM
Adenosine receptor A3
  AC50: > 30 µM

## COc1cc(N2CCC(N3CCN(C)CC3)CC2)ccc1Nc1ncc(Cl)c(Nc2ccccc2P(C)(C)=O)n1 [BRIGATINIB]
[1]
  AC50: > 30 µM
[2]
  AC50: > 30 µM
Thromboxane A2 receptor
  AC50: > 30 µM
Adenosine receptor A3
  AC50: > 30 µM

## Cc1cc(NC(=O)C2=C(O)c3ccccc3S(=O)(=O)N2C)no1 [ISOXICAM]
[1]
  AC50: > 30 µM
[2]
  AC50: > 30 µM
Thromboxane A2 receptor
  AC50: > 30 µM
Adenosine receptor A3
  AC50: > 30 µM

## c1ccc2c(c1)CCc1ccccc1N2C1CN2CCC1CC2 (stereo not drawn) [QUINUPRAMINE]
[1]
  AC50: > 30 µM
[2]
  AC50: 0.0076 µM
Thromboxane A2 receptor
  AC50: > 30 µM
Adenosine receptor A3
  AC50: > 30 µM

## CN1C(=O)/C(=N\NC(N)=S)c2ccccc21 [METHISAZONE]
[1]
  AC50: > 30 µM
[2]
  AC50: > 3 µM
Thromboxane A2 receptor
  AC50: > 10 µM
Adenosine receptor A3
  AC50: 13.9 µM

## NC(=O)OCC(O)COc1ccc(Cl)cc1 (stereo not drawn) [CHLORPHENESIN CARBAMATE]
[1]
  AC50: > 30 µM
[2]
  AC50: > 30 µM
Thromboxane A2 receptor
  AC50: > 30 µM
Adenosine receptor A3
  AC50: > 30 µM

## CCOC(=O)[C@H](CCc1ccccc1)N[C@@H](C)C(=O)N(CC(=O)O)C1Cc2ccccc2C1
[1]
  AC50: > 30 µM
[2]
  AC50: > 30 µM
Thromboxane A2 receptor
  AC50: > 30 µM
Adenosine receptor A3
  AC50: > 30 µM
